Columns and labels:
Experiment in all cases: combination Emax (second highest fraction inhibited in the dose matrix, 72 h); higher = more inhibition; extreme values may be limits of the assay
[1] = system: 697 (B-Lymphoblastic Leukemia)
Summary of the method: (§1)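 Cell lines in DMEM/F12 or RPMI with 10% FBS were plated in 1536-well plates, held 24 hours at 37°C, 5% CO2, then given two-drug dose matrices for 72 hours (DMSO typically 0.2%). Viability was read by CellTiter-Glo 2.0 luminescence and scaled as inhibition from 0 (vehicle wells) to 1 (blank wells). Combination Emax is the second-highest inhibition in the matrix; Bliss excess is observed combination effect minus expected EA + EB − EA·EB, EA and EB being single-agent effects.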

[2] = system: C3A (Hepatocellular Carcinoma)
Summary of the method: as §1

[3] = system: CFPAC-1 (Pancreatic Carcinoma)
Summary of the method: as §1

[4] = system: COR-L23 (Non-Small Cell Lung Carcinoma)
Summary of the method: as §1

[5] = system: DMS-273 (Small Cell Lung Carcinoma)
Summary of the method: as §1

[6] = system: HCC2157 (Breast Carcinoma)
Summary of the method: as §1

J82 (Bladder Carcinoma) = system: J82 (Bladder Carcinoma)
Summary of the method: as §1

[7] = system: LU-99A (Non-Small Cell Lung Carcinoma)
Summary of the method: as §1

[8] = system: MDA-MB-231 (Breast Carcinoma)
Summary of the method: as §1

[9] = system: MFH-ino (Other Solid Carcinomas)
Summary of the method: as §1

[10] = system: NALM-6 (B-Lymphoblastic Leukemia)
Summary of the method: as §1

[11] = system: NCI-H1299 (Non-Small Cell Lung Carcinoma)
Summary of the method: as §1

[12] = system: NCI-H1781 (Lung Adenocarcinoma)
Summary of the method: as §1

[13] = system: OCI-AML2 (Acute Myeloid Leukemia)
Summary of the method: as §1

SK-N-FI (Neuroblastoma) = system: SK-N-FI (Neuroblastoma)
Summary of the method: as §1

SN12C (Kidney Carcinoma) = system: SN12C (Kidney Carcinoma)
Summary of the method: as §1

[14] = system: SW1088 (Low Grade Glioma)
Summary of the method: as §1

[15] = system: SW1990 (Pancreatic Carcinoma)
Summary of the method: as §1

[16] = system: TGBC24TKB (Biliary Tract Carcinoma)
Summary of the method: as §1

[17] = system: IHH-4 (Thyroid Gland Carcinoma)
Summary of the method: as §1

Compound | combination Emax [1] | combination Emax [2] | combination Emax [3] | combination Emax [4] | combination Emax [5] | combination Emax [6] | combination Emax (J82 (Bladder Carcinoma)) | combination Emax [7] | combination Emax [8] | combination Emax [9] | combination Emax [10] | combination Emax [11] | combination Emax [12] | combination Emax [13] | combination Emax (SK-N-FI (Neuroblastoma)) | combination Emax (SN12C (Kidney Carcinoma)) | combination Emax [14] | combination Emax [15] | combination Emax [16] | combination Emax [17]
Cc1c2c(nn1C)CSCc1cc(n(C)n1)CSc1cc(c3ccccc3c1)OCCCc1c(C(=O)O)n(C)c3c-2c(Cl)ccc13 [AZD5991] + C1CN(CCC1(C(=O)N[C@@H](CCO)C2=CC=C(C=C2)Cl)N)C3=NC=NC4=C3C=CN4 [Capivasertib] (first compound max 1 µM, 7x7, partner max 3 µM) | 1 | 0.254 | 0.2 | 0.182 | 0.987 | 0.992 | 0.201 | 0.297 | 0.194 | 0.248 | 0.694 | 0.224 | 0.76 | 1 | 0.514 | 0.204 | 0.527 | 0.121 | 0.175 | –
CN(C)CCCOc1ccc(-c2ccc3ncc4c(c3c2)n(C2CCOCC2)c(=O)n4C)cn1 [AZD0156] + C[C@@H]1COCCN1C2=NC(=NC(=C2)C3(CC3)[S@](=N)(=O)C)C4=C5C=CNC5=NC=C4 [AZD6738] (first compound max 1 µM, 7x7, partner max 10 µM) | 1 | 0.584 | 0.434 | 0.687 | 0.834 | 0.955 | 0.396 | 0.784 | 0.736 | 0.403 | 0.903 | 0.746 | 0.346 | 0.975 | 0.793 | 0.114 | 0.57 | 0.552 | 0.796 | 0.907
NC1(C(=O)N[C@@H](CCO)c2ccc(Cl)cc2)CCN(c2ncnc3[nH]ccc23)CC1 [Capivasertib] + C[C@@H]1COCCN1C2=NC(=NC(=C2)C3(CC3)[S@](=N)(=O)C)C4=C5C=CNC5=NC=C4 [AZD6738] (first compound max 10 µM, 7x7, partner max 10 µM) | 1 | 0.551 | 0.567 | 0.707 | 0.856 | 1 | 0.65 | 0.63 | 0.74 | 0.602 | 0.984 | 0.602 | 0.685 | 0.983 | 0.705 | 0.261 | 0.707 | 0.498 | 0.711 | 0.859
COc1nnc2ccc(N3CCC(c4ccc(OCCN5CCN(C)C(=O)[C@H]5C)cc4)CC3)nn12 [AZD5153] + C=CCn1c(=O)c2cnc(Nc3ccc(N4CCN(C)CC4)cc3)nc2n1-c1cccc(C(C)(C)O)n1 [AZD1775] (first compound max 1 µM, partner max 1 µM) | 1 | 0.718 | 0.506 | 0.68 | 0.847 | 1 | 0.486 | 0.595 | 0.612 | 0.473 | 0.951 | 0.777 | 0.478 | 1 | 0.641 | 0.165 | 0.513 | 0.24 | 0.826 | 0.662
C=CCn1c(=O)c2cnc(Nc3ccc(N4CCN(C)CC4)cc3)nc2n1-c1cccc(C(C)(C)O)n1 [AZD1775] + O=C(c1cc(Cc2n[nH]c(=O)c3ccccc23)ccc1F)N1CCN(C(=O)C2CC2)CC1 [Olaparib] (first compound max 1 µM, partner max 10 µM) | 1 | 0.55 | 0.476 | 0.224 | 0.549 | 0.892 | 0.195 | 0.546 | 0.582 | 0.413 | 0.94 | 0.792 | 0.538 | 0.992 | 0.715 | 0.335 | 0.59 | 0.404 | 0.687 | 0.695
CN(CCO)CC[C@H](CSc1ccccc1)Nc1ccc(S(=O)(=O)NC(=O)c2ccc(N3CCC([C@@H](O)c4ccccc4-c4ccc(Cl)cc4)CC3)cc2)cc1S(=O)(=O)C(F)(F)F [AZD4320] + C[C@@H]1COCCN1C2=NC(=NC(=C2)C3(CC3)[S@](=N)(=O)C)C4=C5C=CNC5=NC=C4 [AZD6738] (first compound max 1 µM, 7x7, partner max 10 µM) | 1 | 0.52 | 0.724 | 0.621 | 0.813 | 0.979 | 0.524 | 0.838 | 0.849 | 0.51 | 1 | – | 0.519 | 1 | 0.765 | 0.328 | 0.586 | 0.845 | 0.891 | 0.769
COc1nnc2ccc(N3CCC(c4ccc(OCCN5CCN(C)C(=O)[C@H]5C)cc4)CC3)nn12 [AZD5153] + CN(CC[C@H](CSC1=CC=CC=C1)NC2=C(C=C(C=C2)S(=O)(=O)NC(=O)C3=CC=C(C=C3)N4CCC(CC4)[C@H](C5=CC=CC=C5C6=CC=C(C=C6)Cl)O)S(=O)(=O)C(F)(F)F)CCO [AZD4320] (first compound max 1 µM, 7x7, partner max 1 µM) | 1 | 0.489 | 0.401 | 0.424 | 0.746 | 1 | 0.397 | 0.937 | – | – | – | – | 0.251 | – | – | – | – | – | 0.932 | –

Source: the supplement of paper PMC11061612
